Like-named read-outs stand apart in the source and are kept apart here.
Tests used:
[1] = target: T1, folate receptor α (FRα) (Homo sapiens, UniProt P15328); experiment: 3H-folic acid competition radioligand assay on […] cells transfected with FRα; format: cell-based
T1 construct: gene FOLR1

[2] = target: T2, folate receptor β (FRβ) (Homo sapiens, UniProt P14207); experiment: 3H-folic acid competition radioligand assay on […] cells transfected with FRβ; format: cell-based
T2 construct: gene FOLR2

[3] = target: T2, folate receptor β (FRβ); experiment: as above

T2 sequence (P14207 17-230): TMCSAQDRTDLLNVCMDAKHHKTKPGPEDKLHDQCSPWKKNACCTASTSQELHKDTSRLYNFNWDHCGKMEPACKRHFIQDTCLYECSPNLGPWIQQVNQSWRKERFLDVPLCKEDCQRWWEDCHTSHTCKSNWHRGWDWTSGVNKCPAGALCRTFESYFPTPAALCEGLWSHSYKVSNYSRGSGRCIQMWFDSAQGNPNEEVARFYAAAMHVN
T1 sequence (P15328 25-234): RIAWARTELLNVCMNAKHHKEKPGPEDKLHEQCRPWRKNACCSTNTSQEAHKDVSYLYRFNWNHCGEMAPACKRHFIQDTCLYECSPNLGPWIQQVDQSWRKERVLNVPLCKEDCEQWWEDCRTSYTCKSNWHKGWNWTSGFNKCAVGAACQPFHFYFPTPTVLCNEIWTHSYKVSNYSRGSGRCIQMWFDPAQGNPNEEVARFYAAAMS

Row | Kd [1] [nM] | Kd [2] [nM] | Compound | Kd [3]
1 | 61.7 | 487 | CC1(C)C(=CC=C2CCCC(C=CC3=[N+](CCCCS(=O)(=O)[O-])c4ccc(S(=O)(=O)O)cc4C3(C)C)=C2Oc2ccc(C[C@H](NC(=O)c3ccc(CCc4c[nH]c5[nH]c(N)nc(=O)c45)cc3)C(=O)O)cc2)N(CCCCS(=O)(=O)O)c2ccc(S(=O)(=O)O)cc21 [NY-07] | –
2 | – | – | Nc1nc(=O)c2nc(CNc3ccc(C(=O)N[C@@H](CCC(=O)O)C(=O)O)cc3)cnc2[nH]1 [folate, folic acid] | Assessment of K d of folate, OTL38, and NY-07 to FRβ.

From paper PMC13014312, “Fluorescence Discrimination of Cancer from Inflammation by Selective Targeting Folate Receptor α” (Chemical & Biomedical Imaging, 2025)
